From PMC5218480 (PLoS ONE, 2017) come the findings set out here.

This experiment concerns MV-4-11 cells. The experiment in a line: Gene expression microarray analysis (Affymetrix PrimeView) and GSEA. The format is cell-based, human. The conditions noted are these: ProbeSet 11758779_at; LIST B.

With `Nc1ncn([C@@H]2O[C@H](CO)[C@@H](O)[C@H]2O)c(=O)n1` [azacitidine], the “RFU, TMEM50B” value is 84.99 RFU.
